# Laboratory results as given in patent US20230355500A1, “TOPICAL COMPOSITION” (LILIGER LTD, priority 2021, published 2023).
# Tests used:
# stratum corneum = conditions: patients with atopic dermatitis, topical treatment; cited from earlier work
# skin = test: Concentration needed for skin effect, judged by redness, swelling, tingling and burning sensation; format: in vivo, human
# Procedure: The concentration of the NO-donor in the topical composition of the present invention is determined by the amount that is sufficient to elevate the level of NO in the skin, upon topical application of the composition. Since measuring NO levels in humans is impractical, such elevation can be observed by the appearance of skin redness (erythema), swelling (oedema) a tingling sensation and a burning sensation, which is intensified as the concentration goes up. Furthermore, the occurrence of elevated NO can be noticed by its desirable cosmetic outcomes such as enhanced radiance and reduction of wrinkles.
# For example, in the case of nitroglycerine, 2% is insufficient. At higher concentrations, from about 4%, a slight burning sensation is noticed. This sensation intensifies as the nitroglycerine concentration increases. Thus, in certain embodiments, the concentration of nitroglycerine as NO-donor is between about 4% - about 12%; and in other embodiments it can be from about 4%-8%, or from about 8%-12%.
# In the case of arginine, 5% is insufficient. At higher concentrations, from about 6%, a slight burning sensation is noticed, and it is associated with a tingling sensation. This sensation intensifies as the arginine concentration increases. Thus, in certain embodiments, the concentration of arginine as NO-donor is at least about 6%. For example, between about 6% and about 25%. In other embodiments, the concentration of arginine can be from about 6% to about 8%, or from about 8% to about 10%, or from about 10% to about 14%, or from about 14% to about 18%, or from about 18% to about 25%, or from about 8% to about 25%, or from about 6% to about 12%, or from about 8% to about 12%, or from about 8% to about 10%.
# The concentration of the counter-NO agent is determined so that the skin redness (erythema), swelling (oedema) and burning sensation, induced by the NO-donor is decreased or eliminated. For example, in certain cases, where the counter-NO agent is nicotinamide, 0.5% is insufficient. […]
# ageing skin = test: Treatment of ageing skin, study #2: day cream used for 28 days, unguided free-form feedback; format: in vivo, human; conditions: addition of nicotinamide to the arginine cream
# Description: Objectives: To determine the impact of Composition #1 on middle-aged women after 28 days of continuous use. […] They were asked to use the cream daily for 28 days and to provide unguided input (free form) Results: 13 of the 20 women provided feedback that was summarized in the table below.
structure (smiles),measurement,setting,value
Cl.N=C(N)NCCC[C@H](N)C(=O)O [arginine hydrochloride],Clinical symptoms of dry skin,stratum corneum,improvement
same,Skin moisture,stratum corneum,increase
same,Urea in the stratum corneum,stratum corneum,significantly increase
"N=C(N)NCCC[C@H](N)C(=O)O [arginine, L-arginine]",Sufficiency of the concentration as NO-donor,skin; 5% in the topical composition,insufficient
same,Concentration from which a slight burning sensation is noticed,"skin; human, in vivo",at least 6%
NC(=O)c1cccnc1 [nicotinamide],"Sufficiency of the concentration as counter-NO agent (to decrease redness, swelling and burning sensation)","skin; 0.5% in the topical composition, in certain cases",insufficient
same,Previous issues (Study #1) of burning sensation and over-tingling,ageing skin,solved
